Results: patent US10919896B2, “Preparation and uses of pyrimidinone derivatives” (Cancer Research Technology Limited, priority 2016, dated 2021)
Structures can show the parent of a compound that is named as a salt.

Assays:
Cdc7/Dbf4 = Cdc7/Dbf4 (Homo sapiens, UniProt O00311); test: Cdc7 Biochemical Assay Method 3: Cdc7/Dbf4 Enzyme TR-FRET Assay measuring pS40MCM2; conditions: 1 μM ATP, read-out: Biochemical Method 3 (pIC50) (converted)
Method in brief: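 2.5 nM Cdc7/Dbf4 incubated with 100 nM biotinylated MCM2-derived peptide and 1 μM ATP, 120 minutes at 25° C. Phospho-S40 detected by TR-FRET using anti-pS40 Mcm2 antibody, terbium anti-rabbit secondary and streptavidin-Alexa Fluor488.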

[1] = system: Cdc7 (pS53MCM2 levels in HCT116 cells); test: Cdc7 Cell Pharmacodynamics Assay Method 1: pS53MCM2 levels in HCT116 cells, 6 hours; type: cell-based; conditions: Homo sapiens, HCT-116, 6 h, read-out: Biomarker Method 1 (pEC50) (converted)
Method in brief: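 HCT116 cells (wild-type p53), 20,000 per well in McCoys 5A with 10% FCS, treated with compound for 6 h at 37 °C. Lysates captured on total-MCM2 antibody and probed with anti-pMCM2 Ser53 plus HRP secondary; chemiluminescent read-out of pS53MCM2 levels.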

Chain of Cdc7/Dbf4 (O00311 whole entry): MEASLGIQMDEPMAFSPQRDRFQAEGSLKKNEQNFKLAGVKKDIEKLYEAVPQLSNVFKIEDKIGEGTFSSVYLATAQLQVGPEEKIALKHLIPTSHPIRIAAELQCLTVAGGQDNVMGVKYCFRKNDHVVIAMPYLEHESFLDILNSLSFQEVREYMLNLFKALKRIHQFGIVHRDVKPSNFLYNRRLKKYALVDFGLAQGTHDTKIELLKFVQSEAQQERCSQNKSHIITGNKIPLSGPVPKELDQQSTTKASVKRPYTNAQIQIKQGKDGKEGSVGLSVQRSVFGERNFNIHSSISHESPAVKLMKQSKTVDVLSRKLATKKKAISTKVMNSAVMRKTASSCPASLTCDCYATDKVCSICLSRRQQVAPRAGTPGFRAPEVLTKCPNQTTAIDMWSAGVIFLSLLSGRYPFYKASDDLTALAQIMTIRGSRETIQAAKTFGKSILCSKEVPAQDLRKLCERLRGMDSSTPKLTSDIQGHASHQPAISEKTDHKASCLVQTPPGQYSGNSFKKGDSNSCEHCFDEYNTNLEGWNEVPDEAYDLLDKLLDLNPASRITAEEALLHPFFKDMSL
Chain of Cdc7/Dbf4 (Q9UBU7 whole entry partner): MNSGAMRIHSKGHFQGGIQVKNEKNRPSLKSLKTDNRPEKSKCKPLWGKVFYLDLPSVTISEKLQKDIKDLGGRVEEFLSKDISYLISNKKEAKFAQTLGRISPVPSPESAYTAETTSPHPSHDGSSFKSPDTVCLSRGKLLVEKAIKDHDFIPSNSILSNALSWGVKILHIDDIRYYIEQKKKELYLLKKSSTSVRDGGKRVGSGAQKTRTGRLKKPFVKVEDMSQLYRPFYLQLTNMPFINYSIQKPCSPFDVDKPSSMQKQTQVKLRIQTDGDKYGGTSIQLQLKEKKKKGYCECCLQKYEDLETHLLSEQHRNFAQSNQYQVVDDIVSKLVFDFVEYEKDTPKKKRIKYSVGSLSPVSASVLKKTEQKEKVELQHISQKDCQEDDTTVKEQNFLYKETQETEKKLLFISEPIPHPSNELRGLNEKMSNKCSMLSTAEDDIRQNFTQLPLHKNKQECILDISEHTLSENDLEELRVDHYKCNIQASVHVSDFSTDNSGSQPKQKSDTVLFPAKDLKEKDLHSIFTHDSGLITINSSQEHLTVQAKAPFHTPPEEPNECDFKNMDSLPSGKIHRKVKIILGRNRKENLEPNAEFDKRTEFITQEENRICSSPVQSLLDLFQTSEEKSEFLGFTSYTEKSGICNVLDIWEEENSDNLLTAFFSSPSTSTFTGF

SMILES | IC50 (Cdc7/Dbf4) [nM] | EC50 [1] [nM]
O=c1[nH]c(-c2ccnc(F)c2)nc(N2CCCC(F)(F)C2)c1Cl [Compound 90, 5-chloro-4-(3,3-difluoro-1-piperidyl)-2-(2-fluoro-4-pyridyl)-1H-pyrimidin-6-one] | 0.355 | 33.1
C[C@H]1CN(c2nc(-c3ccncc3)[nH]c(=O)c2Cl)CCN1 [Compound 130] | 2.34 | 107
O=c1[nH]c(-c2ccncc2)nc(N2CCN[C@H](C(F)(F)F)C2)c1Cl [Compound 139] | 4.07 | 324
O=c1[nH]c(-c2ccncc2)nc(N2CCN(CC(F)F)CC2)c1Cl [Compound 147] | 1.55 | 115
CC(C)[C@H]1CN(c2nc(-c3ccnc(F)c3)[nH]c(=O)c2Cl)CCN1 [Compound 170] | 1.05 | 31.6
O=c1[nH]c(-c2ccncc2)nc(N2CCN[C@@H](C(F)(F)F)C2)c1Cl [Compound 180] | 1.38 | 26.9
CC(C)(C)[C@H]1CN(c2nc(-c3ccncc3)[nH]c(=O)c2F)CCN1 [Compound 185] | 0.724 | 85.1
O=c1[nH]c(-c2ccncc2)nc(N2CCCOCC2)c1Cl [Compound 186] | – | 347
CC(C)[C@H]1CN(c2nc(-c3ccncc3)[nH]c(=O)c2F)CCN1 [Compound 308] | – | 178
O=c1[nH]c(-c2ccnc(F)c2)nc(N2CCNCC(F)(F)C2)c1Cl [Compound 312, 5-chloro-4-(6,6-difluoro-1,4-diazepan-1-yl)-2-(2-fluoro-4-pyridyl)-1H-pyrimidin-6-one hydrochloride] | 0.589 | –
O=c1[nH]c(-c2ccnc(F)c2)nc(N2CCN[C@@H](C(F)(F)F)C2)c1Cl [Compound 314] | – | 12.3
O=c1[nH]c(-c2ccnc(F)c2)nc(N2CCOCC2)c1Cl [Compound 316] | 0.525 | 39.8
N[C@H]1CCCN(c2nc(-c3ccnc(F)c3)[nH]c(=O)c2Cl)C1 [Compound 317] | 0.676 | 97.7
N[C@@H]1CCCN(c2nc(-c3ccnc(F)c3)[nH]c(=O)c2Cl)C1 [Compound 319] | 0.933 | 74.1
C[C@@H]1CNCCN1c1nc(-c2ccnc(F)c2)[nH]c(=O)c1Cl [Compound 323] | 0.537 | 22.4
O=c1[nH]c(-c2ccnc(F)c2)nc(N2CCNCC2)c1Cl [Compound 360] | 0.871 | 57.5
NC[C@H]1CCCN(c2nc(-c3ccnc(F)c3)[nH]c(=O)c2Cl)C1 [Compound 362] | – | 302
NC[C@@H]1CCCN(c2nc(-c3ccnc(F)c3)[nH]c(=O)c2Cl)C1 [Compound 363] | – | 794
C[C@@H]1CNCCN1c1nc(-c2ccncc2)[nH]c(=O)c1Cl [Compound 364] | 1.41 | 20.4
